Results as given in US11000033B2, “Ketone or oxime compound, and herbicide” (NISSAN CHEMICAL CORPORATION, priority 2014, dated 2021).

Experiments:
Format in all cases: in vivo
[1] = test system: Echinochloa oryzacola Vasing.; experiment: Test Example 1: herbicidal activity, application before weed generation in submerged conditions (symbol A); conditions: application herbicide amount 320 g/ha
Procedure, shortened: (§1)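 Weeds are sown into submerged alluvial soil alongside transplanted 2.5-leaf rice, and the compound, as an emulsion diluted to a set rate, is applied onto the water before emergence. Rating on the 0–5 herbicidal-ratio scale follows 3 weeks of greenhouse growth at 25–30 °C.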

Scirpus juncoides = experiment: Test Example 1: herbicidal activity, application before weed generation in submerged conditions (symbol B); conditions: application herbicide amount 320 g/ha
Procedure, shortened: as §1

transplanted rice plant = experiment: Test Example 1: effect on crop, application before weed generation in submerged conditions (symbol a); conditions: application herbicide amount 320 g/ha
Procedure, shortened: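 Alluvial soil pots flooded to 4 cm water, sown with Echinochloa oryzacola, Scirpus juncoides and Monochoria vaginalis, then transplanted with 2.5 leaf stage rice seedlings; pre-emergence application. Greenhouse 25° C. to 30° C.; scored 0–5 by herbicidal ratio 3 weeks after application.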

Monochoria vaginalis = experiment: Test Example 2: herbicidal activity, application during weed generation in submerged conditions (symbol C); conditions: Table 23; application herbicide amount 320 g/ha; grade 0-5 by criteria of Test Example 1
Procedure, shortened: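 Submerged alluvial soil (4 cm) sown with mixed seed; greenhouse 25–30° C. 1–2 leaf: diluted emulsion onto water surface, preset dose. Visual score, 3 wk.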

[2] = test system: directly sowed rice plant; experiment: Test Example 3: effect on crop by foliage application, Wagner pot (symbol b); conditions: application herbicide amount 320 g/ha
Procedure, shortened: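 Plants are raised from seed in flooded paddy conditions: water stands 0.1–0.5 cm over alluvial soil, and the pot is kept in a greenhouse at 25–30 °C. Species sown are barnyardgrass (E. crus-galli var. crus-galli), Leptochloa chinensis, Cyperus difformis and rice.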

Avena fatua = experiment: Test Example 4: herbicidal effect by soil treatment (symbol I)
Procedure, shortened: (§2)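 Seeds were sown in sterilized diluvial soil, covered with about 1.5 cm of soil, and the soil surface was sprayed with a water-diluted emulsion of the compound at a predetermined rate. Plants grew in a greenhouse at 25° C. to 30° C.; effects were scored visually 3 weeks after application.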

Abutilon theophrasti = experiment: Test Example 4: herbicidal effect by soil treatment (symbol M); conditions: application herbicide amount 320 g/ha
Procedure, shortened: as §2

Amaranthus retroflexus = experiment: Test Example 4: herbicidal effect by soil treatment (symbol N)
Procedure, shortened: as §2

Veronica persica = experiment: Test Example 4: herbicidal effect by soil treatment (symbol R)
Procedure, shortened: as §2

soybean = experiment: Test Example 4: effect on crop by soil treatment (symbol d); conditions: for d: soybean, effect on crop grade: application herbicide amount 320 g/ha; for d: soybean, effect grade on crop: 320 g/ha
Procedure, shortened: (§3)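 The test used sterilized diluvial soil. Seed was set down in spots and overlaid with about 1.5 cm of soil before growth in a greenhouse kept at 25° C. to 30° C.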

beet = experiment: Test Example 4: effect on crop by soil treatment (symbol f); conditions: for f: beet, effect on crop grade: application herbicide amount 320 g/ha; for f: beet, effect grade on crop: 320 g/ha
Procedure, shortened: as §3

rapeseed = experiment: Test Example 4: effect on crop by soil treatment (symbol g); conditions: for g: rapeseed, effect on crop grade: application herbicide amount 320 g/ha; for g: rapeseed, effect grade on crop: 320 g/ha
Procedure, shortened: as §3

Digitaria ciliaris = experiment: Test Example 5: herbicidal effect by foliage application, plastic box (symbol F); conditions: 320 g/ha, 3 weeks after application
Procedure, shortened: (§4)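 Effect is rated 3 weeks after a foliar spray of water-diluted emulsion concentrate at a predetermined herbicide amount. Plants had grown 14 days in a 25° C. to 30° C. greenhouse from seed in sterilized diluvial soil.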

[3] = test system: Echinochloa crus-galli var. crus-galli; experiment: Test Example 5: herbicidal effect by foliage application, plastic box (symbol H); conditions: 320 g/ha, 3 weeks after application
Procedure, shortened: as §4

Alopecurus myosuroides = experiment: Test Example 4: herbicidal effect by soil treatment (symbol J)
Procedure, shortened: as §2

[4] = application herbicide amount 320 g/ha

Row | Compound | Herbicidal effect grade, A: Echinochloa oryzacola Vasing. [1] | Herbicidal effect grade, B: Scirpus juncoides (Scirpus juncoides) | Effect grade on crop, a: transplanted rice plant (transplanted rice plant) | Herbicidal effect grade, C: Monochoria vaginalis (Monochoria vaginalis) | effect on crop b (directly sowed rice plant), grade 0-5 [2] | I: Avena fatua, herbicidal effect grade (Avena fatua; [4]) | M: Abutilon theophrasti, herbicidal effect grade (Abutilon theophrasti) | N: Amaranthus retroflexus, herbicidal effect grade (Amaranthus retroflexus; [4]) | R: Veronica persica, herbicidal effect grade (Veronica persica; [4]) | d: soybean, effect on crop grade (soybean) | f: beet, effect on crop grade (beet) | g: rapeseed, effect on crop grade (rapeseed) | F: Digitaria ciliaris, herbicidal effect grade (Digitaria ciliaris) | H: Echinochloa crus-galli var. crus-galli, herbicidal effect grade [3] | J: Alopecurus myosuroides, herbicidal effect grade (Alopecurus myosuroides; [4]) | I: Avena fatua, herbicidal effect grade (Avena fatua; 320 g/ha) | J: Alopecurus myosuroides, herbicidal effect grade (Alopecurus myosuroides; 320 g/ha) | R: Veronica persica, herbicidal effect grade (Veronica persica; 320 g/ha) | d: soybean, effect grade on crop (soybean) | f: beet, effect grade on crop (beet) | other results
1 | CON=C(C)CC1CC(O)=C(c2c(C)cc(-c3ccc(OC)cc3)cc2C)C1=O (mixture of isomers) [6-017] | 5 (Herbicidal ratio of 90% or more (almost completely withered)) | 1 (Herbicidal ratio of 5% or higher and lower than 20%) | 5 (Herbicidal ratio of 90% or more (almost completely withered)) | 0 (Herbicidal ratio of 5% or lower (almost no effect)) | 5 (Herbicidal ratio of 90% or more (almost completely withered)) | 0 (Herbicidal ratio of 5% or lower (almost no effect)) | 0 (Herbicidal ratio of 5% or lower (almost no effect)) | 1 (Herbicidal ratio of 5% or higher and lower than 20%) | 0 (Herbicidal ratio of 5% or lower (almost no effect)) | 0 (Herbicidal ratio of 5% or lower (almost no effect)) | 0 (Herbicidal ratio of 5% or lower (almost no effect)) | 0 (Herbicidal ratio of 5% or lower (almost no effect)) | 5 (Herbicidal ratio of 90% or more (almost completely withered)) | 5 (Herbicidal ratio of 90% or more (almost completely withered)) |  |  |  |  |  |  | 
2 | CCC(=O)CCC1CC(OC)=C(c2c(C)cc(C)cc2C)C1=O (centres unmarked) [5-002] | 0 (Herbicidal ratio of 5% or lower (almost no effect)) | 0 (Herbicidal ratio of 5% or lower (almost no effect)) | 0 (Herbicidal ratio of 5% or lower (almost no effect)) | 0 (Herbicidal ratio of 5% or lower (almost no effect)) | 0 (Herbicidal ratio of 5% or lower (almost no effect)) | 0 (Herbicidal ratio of 5% or lower (almost no effect)) | 0 (Herbicidal ratio of 5% or lower (almost no effect)) | 0 (Herbicidal ratio of 5% or lower (almost no effect)) | 0 (Herbicidal ratio of 5% or lower (almost no effect)) | 0 (Herbicidal ratio of 5% or lower (almost no effect)) | 0 (Herbicidal ratio of 5% or lower (almost no effect)) |  | 0 (Herbicidal ratio of 5% or lower (almost no effect)) | 0 (Herbicidal ratio of 5% or lower (almost no effect)) | 0 (Herbicidal ratio of 5% or lower (almost no effect)) |  |  |  |  |  | 
3 | CON=C(C)CC1CC(OC(=O)N2CCCC2)=C(c2c(C)cc(C)cc2C)C1=O (centres unmarked) [1-150] | 5 (Herbicidal ratio of 90% or more (almost completely withered)) | 3 (Herbicidal ratio of 40% or higher and lower than 70%) | 5 (Herbicidal ratio of 90% or more (almost completely withered)) | 1 (Herbicidal ratio of 5% or higher and lower than 20%) | 5 (Herbicidal ratio of 90% or more (almost completely withered)) |  |  |  |  |  |  |  |  |  |  | 2 (Herbicidal ratio of 20% or higher and lower than 40%) | 5 (Herbicidal ratio of 90% or more (almost completely withered)) | 0 (Herbicidal ratio of 5% or lower (almost no effect)) | 0 (Herbicidal ratio of 5% or lower (almost no effect)) | 0 (Herbicidal ratio of 5% or lower (almost no effect)) | g: rapeseed, effect grade on crop (rapeseed): 0 (Herbicidal ratio of 5% or lower (almost no effect)); F: Digitaria ciliaris, herbicidal effect (criteria 0-5) (Digitaria ciliaris): 5 (Herbicidal ratio of 90% or more (almost completely withered)); H: Echinochloa crus-galli var. crus-galli, herbicidal effect (criteria 0-5) [3]: 5 (Herbicidal ratio of 90% or more (almost completely withered))
4 | CON=C(C)CC1CC(OC(=O)C(C)Oc2ccc(Oc3ccc(Cl)cc3Cl)cc2)=C(c2c(C)cc(C)cc2C)C1=O (centres unmarked) [1-163] | 5 (Herbicidal ratio of 90% or more (almost completely withered)) | 4 (Herbicidal ratio of 70% or higher and lower than 90%) | 5 (Herbicidal ratio of 90% or more (almost completely withered)) | 3 (Herbicidal ratio of 40% or higher and lower than 70%) |  |  |  |  |  |  |  |  | 5 (Herbicidal ratio of 90% or more (almost completely withered)) | 5 (Herbicidal ratio of 90% or more (almost completely withered)) |  | 3 (Herbicidal ratio of 40% or higher and lower than 70%) | 5 (Herbicidal ratio of 90% or more (almost completely withered)) | 0 (Herbicidal ratio of 5% or lower (almost no effect)) | 0 (Herbicidal ratio of 5% or lower (almost no effect)) | 0 (Herbicidal ratio of 5% or lower (almost no effect)) | N: Amaranthus retroflexus, herbicidal effect grade (Amaranthus retroflexus; 320 g/ha): 4 (Herbicidal ratio of 70% or higher and lower than 90%); g: rapeseed, effect grade on crop (rapeseed): 4 (Herbicidal ratio of 70% or higher and lower than 90%)
5 | CCOC(=O)C(C(=O)CC1CC1)C1CC(O)=C(c2c(C)cc(C)cc2C)C1=O (centres unmarked) [2-025] | 3 (Herbicidal ratio of 40% or higher and lower than 70%) | 0 (Herbicidal ratio of 5% or lower (almost no effect)) | 2 (Herbicidal ratio of 20% or higher and lower than 40%) |  | 4 (Herbicidal ratio of 70% or higher and lower than 90%) | 0 (Herbicidal ratio of 5% or lower (almost no effect)) | 0 (Herbicidal ratio of 5% or lower (almost no effect)) | 0 (Herbicidal ratio of 5% or lower (almost no effect)) | 0 (Herbicidal ratio of 5% or lower (almost no effect)) | 0 (Herbicidal ratio of 5% or lower (almost no effect)) | 0 (Herbicidal ratio of 5% or lower (almost no effect)) | 0 (Herbicidal ratio of 5% or lower (almost no effect)) | 4 (Herbicidal ratio of 70% or higher and lower than 90%) | 4 (Herbicidal ratio of 70% or higher and lower than 90%) | 0 (Herbicidal ratio of 5% or lower (almost no effect)) |  |  |  |  |  | 
